According to ChEMBL document CHEMBL1137590, “(3R)-4-[(3R)-3-Amino-4-(2,4,5-trifluorophenyl)butanoyl]-3-(2,2,2-trifluoroethyl)-1,4-diazepan-2-one, a selective dipeptidyl peptidase IV inhibitor for the treatment of type 2 diabetes” (Bioorg Med Chem Lett, 2007):

Key:
[1] = Plasma clearance in dogs; assay type: ADME, organism-based, Canis lupus familiaris; conditions: dog, read-out: Clp
[2] = Half-life in dogs; assay type: ADME, organism-based, Canis lupus familiaris; conditions: dog, in vivo
[3] = Oral bioavailability in dogs; assay type: ADME, organism-based, Canis lupus familiaris; conditions: dog, in vivo
Canis familiaris = organism: Canis familiaris; assay: Dose-normalized area under plasma concentration vs time curve in dogs; assay type: ADME, organism-based, Canis lupus familiaris; conditions: dog, in vivo
[4] = Plasma clearance in rats; assay type: ADME, organism-based; conditions: rat, read-out: Clp
[5] = Half-life in rats; assay type: ADME, organism-based; conditions: rat, in vivo
[6] = Oral bioavailability in rats; assay type: ADME, organism-based; conditions: rat, in vivo
Rattus norvegicus = organism: Rattus norvegicus; assay: Dose-normalized area under plasma concentration vs time curve in rats; assay type: ADME, organism-based; conditions: in vivo
Dipeptidyl peptidase 2 = Dipeptidyl peptidase 2 (Homo sapiens, UniProt Q9UHL4); assay: In vitro inhibition of QPP dipeptidylpeptidase II

clearance [1] | half-life [2] | bioavailability [3] | AUC (Canis familiaris) | clearance [4] | half-life [5] | bioavailability [6] | AUC (Rattus norvegicus) | IC50 (Dipeptidyl peptidase 2) | SMILES
18 mL/min/kg | 540 min | 95% | 2.2 uM h/(mg/kg) | 94 mL/min/kg | 120 min | 36% | 0.2 uM h/(mg/kg) | – | N[C@@H](CC(=O)N1CCCNC(=O)[C@H]1CC(F)(F)F)Cc1cc(F)c(F)cc1F
9 mL/min/kg | 258 min | 100% | 8.5 uM h/(mg/kg) | 88 mL/min/kg | 60 min | 26% | 0.15 uM h/(mg/kg) | – | C[C@@H]1C(=O)NCCCN1C(=O)C[C@H](N)Cc1cc(F)c(F)cc1F
– | – | – | – | – | – | – | – | > 100 µM | N[C@@H](CC(=O)N1CCCNC(=O)C1)Cc1cc(F)c(F)cc1F
